Assay results as given in US20060074243A1, “Hydroxamic acid and amide compounds and their use as protease inhibitors” (Pharmacia Corporation, priority 2002, published 2006).

Columns and labels:
Experiment in all cases: In vitro MMP inhibition analysis (fluorogenic peptide substrate cleavage), Ki
Type in all cases: biochemical
Conditions in all cases: Table 2
[1] = molecular target: T1, Human recombinant MMP-1 (Homo sapiens, UniProt P03956)
T1 construct: made in house; host or cells: MMP-1-transfected HT-1080 cells (spent media)
T1 sequence (P03956 100-469): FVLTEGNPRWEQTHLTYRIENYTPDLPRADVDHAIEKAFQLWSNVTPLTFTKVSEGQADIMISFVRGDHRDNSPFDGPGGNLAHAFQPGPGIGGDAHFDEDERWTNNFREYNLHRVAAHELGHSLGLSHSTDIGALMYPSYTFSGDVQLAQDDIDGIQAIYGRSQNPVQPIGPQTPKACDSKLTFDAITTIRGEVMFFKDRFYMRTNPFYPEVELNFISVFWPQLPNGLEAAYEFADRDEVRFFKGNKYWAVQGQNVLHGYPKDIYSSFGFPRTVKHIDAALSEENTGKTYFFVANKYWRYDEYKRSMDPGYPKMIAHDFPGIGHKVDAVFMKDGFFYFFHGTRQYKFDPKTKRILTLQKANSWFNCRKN
In short: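 APMA- or trypsin-activated recombinant human MMP-1 (purified from transfected HT-1080 medium) with 4 μM MCA/Dpa quenched fluorogenic peptide, 1 h at room temperature in Tris/NaCl/CaCl2 buffer pH 7.5; fluorescence ex 330/em 420 nm. Ki from Morrison-equation fit of rates, substrate at or below Km, uncorrected.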

[2] = molecular target: T2, Human recombinant MMP-13 (Homo sapiens, UniProt P45452)
T2 construct: made in house; host or cells: baculovirus / insect cells
In short: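 Baculovirus-expressed full-length MMP-13 proenzyme was purified on heparin-agarose and zinc-chelate columns, then APMA-activated. It cleaved 4 μM MCA/Dpa fluorogenic peptide in 100 mM Tris-HCl, 100 mM NaCl, 10 mM CaCl2, 0.05% Brij-23, pH 7.5, for 1 h at room temperature (ex 330/em 420 nm). Ki came from Morrison-equation fits with substrate ≤Km, uncorrected.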

[3] = molecular target: T3, Human recombinant MMP-9 (Homo sapiens, UniProt P14780)
T3 construct: made in house; host or cells: MMP-9-transfected HT1080 cells (spent media)
T3 sequence (P14780 107-707 limits assumed): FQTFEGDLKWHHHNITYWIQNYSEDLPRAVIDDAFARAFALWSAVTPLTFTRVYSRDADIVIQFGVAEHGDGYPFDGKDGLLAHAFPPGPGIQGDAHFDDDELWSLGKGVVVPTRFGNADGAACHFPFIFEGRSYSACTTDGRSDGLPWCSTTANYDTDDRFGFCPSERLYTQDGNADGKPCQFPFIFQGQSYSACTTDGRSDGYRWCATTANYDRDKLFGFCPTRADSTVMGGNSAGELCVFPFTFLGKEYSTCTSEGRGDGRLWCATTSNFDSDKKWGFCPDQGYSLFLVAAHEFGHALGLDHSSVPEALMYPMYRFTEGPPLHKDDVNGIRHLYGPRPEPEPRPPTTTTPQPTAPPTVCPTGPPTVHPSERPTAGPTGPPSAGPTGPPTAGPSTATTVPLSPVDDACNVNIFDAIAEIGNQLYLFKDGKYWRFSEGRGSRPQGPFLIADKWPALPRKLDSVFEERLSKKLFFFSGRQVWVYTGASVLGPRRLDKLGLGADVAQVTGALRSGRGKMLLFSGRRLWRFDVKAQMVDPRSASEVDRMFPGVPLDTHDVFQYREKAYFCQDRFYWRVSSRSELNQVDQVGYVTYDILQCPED
In short: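 Recombinant MMP-9 purified from transfected HT1080 cell media, activated with APMA, trypsin or recombinant MMP-3, assayed in Tris buffer pH 7.5 with CaCl2 and 4 μM fluorogenic MCA/Dpa peptide, 1 h at room temperature (ex 330/em 420 nm). Ki from Morrison-equation regression of velocity; substrate at or below Km, uncorrected.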

Ki [1] [nM] | Ki [2] [nM] | Ki [3] [nM] | Structure (SMILES)
4900 | 0.037 | 3.93 | CCOCCOc1ccc(-c2ccc(S(=O)(=O)C3(C(=O)NO)CCN(CCOC)CC3)cc2)cc1 [Example 117]
8940 | 0.05 | 9.39 | CCOCCOc1ccc(-c2ccc(S(=O)(=O)C3(C(=O)NO)CCN(CC)CC3)cc2)cc1 [Example 116]
8580 | 0.058 | 2.21 | COCCOc1ccc(-c2ccc(S(=O)(=O)C3(C(=O)NO)CCN(C4CC4)CC3)cc2)cc1F [Example 112]
6550 | 0.042 | 2.77 | COCCOc1ccc(-c2ccc(S(=O)(=O)C3(C(=O)NO)CCN(CCOC)CC3)cc2)cc1F [Example 114]
2910 | 0.031 | 0.732 | COCCOc1ccc(-c2ccc(S(=O)(=O)C3(C(=O)NO)CCN(C4CC4)CC3)cc2)cc1 [Example 113]
3370 | 0.025 | 1.22 | COCCOc1ccc(-c2ccc(S(=O)(=O)C3(C(=O)NO)CCN(CCOC)CC3)cc2)cc1 [Example 115]

Further lines, the compound ahead of its results:

Structure (SMILES) | Ki [1] [nM] | Ki [2] [nM] | Ki [3] [nM]
CCCCc1nc(-c2ccc(S(=O)(=O)C3(C(=O)NO)CCOCC3)cc2)no1 [Example 105] | > 10000 | 3.67 | 2.15
COC(C)CCOc1ccc(-c2ccc(S(=O)(=O)C3(C(=O)NO)CCOCC3)cc2)cc1C(F)(F)F (stereo not drawn) [Example 100] | > 10000 | 9.4 | 849
CC(C)CCOc1ccc(-c2ccc(S(=O)(=O)C3(C(=O)NO)CCOCC3)cc2)cc1 [Example 108] | 2120 | 0.199 | 2.29
O=C(NO)C1(S(=O)(=O)c2ccc(-c3ccc(CCO)cc3)cc2)CCOCC1 [Example 98] | 990 | 0.147 | 3.1
CCN1CCC(C(=O)NO)(S(=O)(=O)c2ccc(-c3ccc(OCCOC)c(F)c3)cc2)CC1 [Example 110] | > 10000 | 0.144 | 11.2
O=C(NO)C1(S(=O)(=O)c2ccc(-c3ccc(-c4ccccc4)cc3)cc2)CCOCC1 [Example 104] | 6910 | 0.032 | 0.074
O=C(NO)C1(S(=O)(=O)c2ccc(-c3cnccn3)cc2)CCOCC1 [Example 71] | 2960 | 1.73 | 42.8
CCCCCc1ccc(-c2ccc(S(=O)(=O)C3(C(=O)NO)CCOCC3)cc2)c(F)c1 [Example 101] | 9030 | 0.4 | 3.05
CC(C)CCc1ccc(-c2ccc(S(=O)(=O)C3(C(=O)NO)CCOCC3)cc2)nc1 [Example 99] | 3080 | 0.052 | 0.211
CC(C)Cc1ccc(-c2ccc(S(=O)(=O)C3(C(=O)NO)CCOCC3)cc2)nc1 [Example 103] | 2320 | 0.117 | 1.38
COc1ccc(-c2ccc(S(=O)(=O)C3(C(=O)NO)CCOCC3)cc2)cc1F [Example 102] | 669 | 0.075 | 1.01
COCCN1CCC(C(=O)NO)(S(=O)(=O)c2ccc(-c3ccc(OCCN4CCCC4)cc3)cc2)CC1 [Example 72] | > 10000 | 2.25 | 12.9
CCN1CCC(C(=O)NO)(S(=O)(=O)c2ccc(-c3ccc(OCCOC)cc3)cc2)CC1 [Example 111] | 7360 | 0.066 | 3.3
